In PubChem BioAssay (NCI) one finds GI50 and TGI data, which are given here for 44 compounds.

Several values for one entry are separate records, joined by “and”; a condition that tells them apart may be missing. Identical values can stand only once.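 Interpolation was linear, between the two tested concentrations surrounding the appropriate level; five concentrations were tested over 48 hours in 96-well plates. GI50 is the concentration that inhibits growth by half. TGI is the concentration that stops growth completely.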 Some results are limits rather than exact numbers.

The subject of the assay is MDA-MB-468 breast. The experiment in a line: DTP human tumour cell line panel, 48 h.
As for `COc1ccc(C(=O)/C=C/c2cccc([N+](=O)[O-])c2)c(OC)c1`, the GI50 – broadly, the concentration at which growth is held to half of that of the control – is 1.09 µM and the concentration for total growth inhibition (TGI) (usually the concentration giving total growth inhibition) is 3 µM. For the compound `CC(=O)OC[C@]12CC[C@@H](C(=O)CBr)[C@@H]1[C@H]1CC[C@@H]3[C@@]4(C)CCCNC(C)(C)[C@@H]4CC[C@@]3(C)[C@]1(C)CC2`, the GI50 is 2.12 µM and the TGI turned out to be 5.66 µM. The matching figures for `COc1cccc(-n2nc(C)c3c(N/N=C(\C)c4ccncc4)ncnc32)c1`: 2.67 µM and over 25 µM. The matching figures for `COc1ccc(-c2cc(-c3cccc4ccccc34)n3c(n2)nc2ccccc23)cc1OC`: 2.7 µM and over 100 µM. Take `CC1(N)CCN(c2cccnc2NC(=O)c2nc(-c3ncccc3C(F)(F)F)cnc2N)CC1`: the GI50 was 14.1 µM and the TGI came to 52.8 µM. The matching figures for `Cc1cc(O)c(C2=NN(c3ccc(S(N)(=O)=O)cc3)C(c3ccccc3Cl)C2)cc1Cl` (configuration not stated): 2.22 µM and 4.74 µM.

On to `O=S(=O)(Nc1ccc(Br)c(Cl)c1)c1ccc(-c2cnc(C3CC3)o2)cc1`, for which the GI50 was 0.263 µM and the TGI came out at 2.86 µM. `Cc1cc(C(=C2C=CC(=Nc3ccccc3)C=C2)c2ccc(Nc3ccccc3)cc2)ccc1N`: the concentration for 50% growth inhibition (GI50) was 0.332 µM and the TGI was found to be 1.29 µM. On to `COc1cccc(-c2nn(-c3ccccc3)cc2-c2ccnc(NCCCNC(=O)Nc3ccc(Cl)c(Cl)c3)c2)c1`, for which the GI50 is 1.92 µM and the total growth inhibition concentration (TGI) worked out at 4.34 µM. Regarding `Cc1ccc(-c2nc(C#N)c(S(=O)(=O)n3nc(C)cc3N)o2)cc1`, the GI50 was 2.72 µM and the total growth inhibition concentration (TGI) was 7.96 µM.

For the compound `CCn1cnc(C[C@H](NC(=O)[C@@H](NC(=O)Nc2cc(C(F)(F)F)cc(C(F)(F)F)c2)C(C)C)C(=O)OC)c1`, the GI50 is 1.74 µM and the TGI was determined as 3.57 µM.

As for `CN(C)C(=S)/N=c1\ssc(=S)n1Cc1ccccc1`, the GI50 is 0.5 µM and the TGI came out at 35.2 µM. The matching figures for `COc1cc(Nc2c(C#N)cnc3cc(OCCCN4CCN(C)CC4)c(OC)cc23)c(Cl)cc1Cl`: 1.63 µM and 4.14 µM.

For the compound `CN(C)C(=S)/N=c1\ssc(=S)n1Cc1cccnc1`, the GI50 was 3.07 µM and the TGI is over 100 µM. The matching figures for `COC1=CC(c2ccc[nH]2)=N/C1=C\c1[nH]c(C)c(C(=O)CCCCC(=O)NC(C)(C)C)c1C`: 1.52 µM and 3.58 µM. For `CN1CCN(CCOc2ccc(-c3cnc4c(-c5ccc(C(F)(F)F)cc5)cnn4c3)cc2)CC1` the same measures were 1.36 µM and 2.95 µM. The matching figures for `NC(=O)c1ccc(I)c(N=O)c1`: 21.3 µM and 61.3 µM.

In the case of `CCn1cc(C(=O)N/N=C/c2ccccc2)c(=O)c2cc(F)c(N3CCNC(C)C3)c(F)c21` (configuration not stated), the GI50 is 1.62 µM and the concentration for total growth inhibition (TGI) came to 3.12 µM. The matching figures for `CN(C)c1ccc(-c2cc(-c3c[nH]c4ccccc34)nc(N)c2C#N)cc1`: 1.97 µM and 9.22 µM. For `CN[C@H](C#Cc1c(F)ccc2c1/C(=C/c1[nH]ccc1OC)C(=O)N2)CO`, the GI50 is 0.476 µM and the concentration for total growth inhibition (TGI) turned out to be 1.45 µM. For `COc1cc2c(cc1O)CC[C@@H]1[C@@H]2CC[C@]2(C)[C@@H](OCCN(C)C)CC[C@@H]12` the same measures were 0.154 µM and 0.531 µM. As to `O=C1NC(=C(Cl)Cl)/C(=N/S(=O)(=O)N2CCCCC2CC2(C(F)(F)F)N=N2)N1` (configuration not stated), the GI50 was 1.16 µM and the TGI amounted to 3.91 µM. On to `O=C1c2cccc(NCCN=Cc3cc([N+](=O)[O-])ccc3O)c2C(=O)c2c(NCCN=Cc3cc([N+](=O)[O-])ccc3O)cccc21`, for which the GI50 is 1.86 µM and the TGI amounted to 20.1 µM. The matching figures for `Cc1cc(NCCN(C(C)C)C(C)C)nc(/N=C(\N)Nc2ccc(Cl)c(C(F)(F)F)c2)n1`: 0.229 µM and 0.595 µM. For `CCCc1cc(=O)[nH]c(-n2nc(C)cc2C)n1` the same measures were 4.77 µM and over 100 µM. Turning to `CCC1CN2C(=N1)c1ccccc1-c1cc(Cl)ccc12` (configuration not stated), the GI50 is 2.16 µM and the TGI was determined as 6.85 µM. The matching figures for `O=C(Nc1cccc(-n2cc(-c3ccncc3)c(-c3ccc(Cl)c(O)c3)n2)c1)c1ccc(N2CCOCC2)c(C(F)(F)F)c1`: 7.04 µM and 26.6 µM. For `O=c1ccn(C2CC(O)C(CO)O2)c(=O)[nH]1` (configuration not stated) the same measures were over 5000 µM and over 5000 µM. Take `CCCCC[C@H]1C/C=C2/C(=O)C=C[C@@H]2C/C=C\CCCC(=O)O[C@@H](CCCCC)C/C=C2/C(=O)C=C[C@@H]2C/C=C\CCCC(=O)O1`: the GI50 is 0.371 µM and the TGI worked out at 1.01 µM.

Consider `CCCNC(=O)CCC(C)C1CCC2C3C(C[C@H](OC(C)=O)[C@]12C)[C@@]1(C)CCC2(C[C@H]1C[C@H]3OC(C)=O)OOC1(CC[C@]3(C)C4C[C@H](OC(C)=O)[C@]5(C)C(C(C)CCC(=O)NCCC)CCC5C4[C@H](OC(C)=O)C[C@@H]3C1)OO2` (some centres not stated), for which the GI50 was 24.9 µM and the total growth inhibition concentration (TGI) was over 100 µM. Take `CCC(C)[C@H]1O[C@]2(C=C[C@@H]1C)C[C@@H]1C[C@@H](C/C=C(\C)[C@@H](OC3C[C@H](OC)C(O[C@H]4C[C@H](OC)[C@@H](O)[C@H](C)O4)[C@H](C)O3)[C@@H](C)/C=C/C=C3\CO[C@@H]4[C@H](O)C(C)=C[C@@H](C(=O)O1)[C@]34O)O2` (some centres not stated): the GI50 is 1.03 µM and the concentration for total growth inhibition (TGI) turned out to be 4.14 µM. As to `CCN(Cc1ccc(F)cc1)c1ccc(CO)c(F)c1`, the concentration for 50% growth inhibition (GI50) was 0.167 µM and the TGI is 0.461 µM.

As to `COc1ccc2c(c1)nnn1c3ncccc3c(N=O)c21`, the concentration for 50% growth inhibition (GI50) was 0.0323 µM and 0.126 µM. As to `COc1cccc2c1ccc1nc3cccc(C(=O)N[C@H](C)CN(C)C)c3nc12`, the GI50 was 0.12 µM and the TGI is 0.485 µM. For `COc1ccc(-c2nc(-c3ccccc3)c(-c3ccccc3)[nH]2)cc1OC1CCCC1` the same measures were over 100 µM and over 100 µM. On to `NC(=O)c1ccccc1Nc1ccc2nnc(-c3ccncc3)n2n1`, for which the GI50 was 1.98 µM and the total growth inhibition concentration (TGI) is 7.32 µM.

As to `O=C(Nc1cccc(-n2cc(-c3ccncc3)c(-c3cc(O)cc(Cl)c3)n2)c1)Nc1ccc(Cl)c(C(F)(F)F)c1`, the GI50 was 2.08 µM and the concentration for total growth inhibition (TGI) is 8.42 µM. Consider `C=C1/C(=C\C=C2/CCC[C@]3(C)[C@@H]([C@H](C)CCCC(C)(C)O)CC[C@@H]23)C[C@@H](OC(=O)CBr)C[C@@H]1O`, for which the GI50 was 2.56 µM and the concentration for total growth inhibition (TGI) came out at 7.74 µM.

Turning to `C[C@]12CCc3sc(NCCc4ccccc4)nc3C1=CC[C@@H]1[C@@H]2CC[C@]2(C)C(=O)CC[C@@H]12`, the GI50 is 2.99 µM and the concentration for total growth inhibition (TGI) came out at 10.3 µM. For `O=C(Nc1ccncc1)C(=O)c1cn(Cc2ccc(Cl)cc2)c2ccccc12` the same measures were 0.0271 µM and 0.346 µM. Take `CNCCCn1c2c(c3ccc([N+](=O)[O-])cc3c1=O)C(=O)c1cc(OC)cnc1-2`: the concentration for 50% growth inhibition (GI50) is 0.0335 µM and the TGI amounted to 0.189 µM. In the case of `Nc1nc(N)c2nc(CNc3ccc(C(=O)NC(CC(=O)O)C(=O)O)cc3)cnc2n1` (configuration not stated), the GI50 is 1.37 µM and the TGI is over 100 µM. The matching figures for `CCOC(=O)c1cc2c(n1Cc1cccc(OC)c1)-c1oncc1CCC2`: 0.732 µM and over 82.8 µM. `COc1cccc(C2=C(c3c(C)n(C)c4ccccc34)C(=O)NC2=O)c1`: the GI50 was 7.67 µM and the TGI is over 25 µM.
